Measurements: article PMC9921896 (Molecules, 2023)

Legend:
Format in all cases: biochemical
CYP2C19 = target: T1, CYP2C19 (Homo sapiens, UniProt P33261); assay: CYP inhibition assay in HLM, single concentration; conditions: human liver microsomes, probe S-Mephenytoin, n = 3, read-out: % Inhibition (CYP 2C19)
T1 construct: Using HLM as the enzyme source; from tissue; host or cells: human liver microsomes
Experimental: (§1) The regulatory bodies and pharmaceutical firms are quite concerned about CYP inhibition. Therefore, medicinal chemists often change the lead structure to decrease CYP inhibition. If left uncorrected, it can cause DDIs, enhanced drug concentration, and, thus, toxicity.
(§2) Using HLM as the enzyme source, the CYP inhibition potential was employed to assess the inhibitory effect of the TbB ligands on the CYP1A2, 2B6, 2C8, 2C9, 2C19, and 2D6 3A4 isoforms. Phenacetin (CYP1A2, […]), tolbutamide (CYP2C9, 20 mM), bupropion (CYP2B6, […]), mephenytoin (CYP2C19, […]), midazolam (CYP3A4, 5 mM), amodiaquine (CYP2C8, 0.02 mM), and dextromethorphan (CYP2D6, 5 mM) were used as probe substrates. The test substance included TbB ligand (final concentrations of […] for each) and HLMs (final concentration of 0.1 mg protein per mL), with or without 1.0 mM NADPH. The reaction was started by adding pre-incubated 25 μ L of NADPH into all wells and incubate at 37 °C for 10 min for 3A4 and 20 min for remaining all isoforms. The reaction was stopped by adding 100 μ L of stop solution to all wells. The samples were centrifuged at 4000 rpm for 10 min at 4 °C. Supernatant (100 μ L) was withdrawn, mixed with 200 μ L of water followed by LC-MS/MS analysis.

CYP2C8 [1] = target: T2, CYP2C8 (Homo sapiens, UniProt P10632); assay: CYP inhibition assay in HLM, single concentration; conditions: human liver microsomes, probe Amodiaquine, n = 3, read-out: % Inhibition (CYP 2C8)
T2 construct: Using HLM as the enzyme source; from tissue; host or cells: human liver microsomes
T2 sequence (P10632 1-490): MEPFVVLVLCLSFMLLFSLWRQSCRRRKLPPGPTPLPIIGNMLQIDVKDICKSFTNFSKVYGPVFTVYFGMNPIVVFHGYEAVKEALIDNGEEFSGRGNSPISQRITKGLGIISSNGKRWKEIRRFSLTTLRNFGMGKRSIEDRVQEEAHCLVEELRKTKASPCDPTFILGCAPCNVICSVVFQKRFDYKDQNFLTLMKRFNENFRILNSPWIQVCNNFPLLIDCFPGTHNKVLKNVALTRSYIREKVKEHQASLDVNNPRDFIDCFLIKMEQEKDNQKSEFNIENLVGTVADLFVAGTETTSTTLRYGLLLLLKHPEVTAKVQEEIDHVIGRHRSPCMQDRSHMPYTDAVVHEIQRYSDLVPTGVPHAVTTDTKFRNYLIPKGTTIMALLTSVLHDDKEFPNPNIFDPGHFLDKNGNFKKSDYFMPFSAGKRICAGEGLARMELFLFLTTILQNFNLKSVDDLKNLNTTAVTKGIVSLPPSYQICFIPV
Experimental: as §1, §2

CYP2B6 = target: T3, CYP2B6 (Homo sapiens, UniProt P20813); assay: Single concentration Kobs assay (time-dependent inhibition) in HLM; conditions: for Kobs 2B6: HLM, single concentration, 0.02 min^−1 indicates TD inhibition potential; for Single concentration Kobs assay (risk bin) 2B6: TD inhibition class from Kobs vs 0.02 min^−1 (Table 5 traffic lights)
T3 construct: Using HLM as the enzyme source; from tissue; host or cells: human liver microsomes
T3 sequence (P20813 1-491): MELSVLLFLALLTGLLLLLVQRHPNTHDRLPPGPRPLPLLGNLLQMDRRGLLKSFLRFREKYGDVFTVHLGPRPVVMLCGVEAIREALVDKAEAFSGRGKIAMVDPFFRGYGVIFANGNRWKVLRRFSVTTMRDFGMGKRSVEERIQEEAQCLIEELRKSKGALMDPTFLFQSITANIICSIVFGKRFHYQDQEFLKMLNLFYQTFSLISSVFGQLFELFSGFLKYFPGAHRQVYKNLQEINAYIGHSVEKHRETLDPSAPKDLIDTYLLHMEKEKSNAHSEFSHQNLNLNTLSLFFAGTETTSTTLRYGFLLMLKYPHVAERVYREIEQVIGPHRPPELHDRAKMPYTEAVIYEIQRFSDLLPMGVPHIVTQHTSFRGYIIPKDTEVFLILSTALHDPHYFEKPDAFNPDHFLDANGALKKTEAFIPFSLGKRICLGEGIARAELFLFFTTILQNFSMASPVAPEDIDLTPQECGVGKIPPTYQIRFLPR
From the text: (§3) CYP inhibition evaluation is typically performed by either IC50 at single-point or IC50 Shift or abbreviated assay such as the first-order inactivity rate constant (K obs ) at single concentration.
(§4) This method yielded good correlations between the percent inhibition at 10 or 25 μ M and kinact/KI. Evaluation of TD inhibition at single concentration has been implemented in several drug discovery programs. […] Therefore, in this study, a single K obs approach has been utilized to understand the TD inhibition potential of TbB ligands. Ideally, the inhibition of CYPs can be reversible or irreversible. The data obtained from single-concentration K obs studies were analyzed to understand the same. From the data presented in Table 4, the TbB ligands have values less than 50% for reversible inhibition (R_Inh). As the qualified % reversible inhibition is considered significant if >50%, no significant reversible inhibition is observed for TbB ligands. Knowledge about enzyme inactivation half-life (E½) is also equally important as it would provide insight into the TD inhibition of a compound. E½ can be used to bin the compounds as positive or negative TD inhibitors if the values are <28 or >28, respectively. The TbB ligand 223-2 is observed to be a weak positive TD inhibitor of 1A2 and is negative TD inhibitor to the other six CYP isoforms.
(§5) The time-dependent inhibition (TDI) potential of test compounds against CYP1A2, 2B6, 2C8, 2C9, 2C19, 2D6, 3A4/5 isoforms were determined using Human liver microsomes. Assay is performed in 96-deep well plate format (n = 1). Positive controls and DMSO as negative control in each assay. To obtain 100 μ M working stock solution, 1 μ L of blank DMSO/test/reference compounds to 100 μ L 1× DPBS buffer was added and labeled as dilution plate. To the primary incubation plate, 45 μ L of primary mix was dispensed to the desired wells containing 25 μ L HLM, 10 μ L MgCl2, and 10 μ L of NADPH working solutions. To the secondary incubation plate, 95 μ L of secondary mix was dispensed to the desired wells containing 20 μ L MgCl2, 20 μ L NADPH, 10 μ L respective substrates for CYP isoform working solutions and 45 μ L 1× DPBS buffer. Each of these four plates were labeled with their respective time points, i.e., 0, 6, 16, 32 min. Pre-incubated the dilution plate along with primary incubation plate at 37 °C for 15 min at 450 rpm. The reaction was carried out in triplicate. After the incubation, the reaction was quenched by adding 150 μ L ice cold stop solution to all the wells followed by centrifuging the samples at 4000 rpm, 4 °C for 15 min. The supernatant samples were then transferred into vials for LC-MS/MS analysis. The percent Reversible Inhibition was calculated using the following formula. %Reversibleinhibition=100−(PARtestcompt0×100)/(PARaverageDMSOt0)

CYP2C8 [2] = target: T2, CYP2C8; assay: as above; conditions: for Kobs 2C8: HLM, 0.02 min^−1 indicates TD inhibition potential; for Kobs 2C8 / inhibition at 30 min: single concentration; for Single concentration Kobs assay (risk bin) 2C8: TD inhibition class from Kobs vs 0.02 min^−1 (Table 5 traffic lights); for inhibition at 30 min: human, human liver microsomes, significant if >50%, read-out: 2C8 R_Inh% (reversible inhibition)
From the text: as §3, §4, §5

T1 sequence (P33261 whole entry): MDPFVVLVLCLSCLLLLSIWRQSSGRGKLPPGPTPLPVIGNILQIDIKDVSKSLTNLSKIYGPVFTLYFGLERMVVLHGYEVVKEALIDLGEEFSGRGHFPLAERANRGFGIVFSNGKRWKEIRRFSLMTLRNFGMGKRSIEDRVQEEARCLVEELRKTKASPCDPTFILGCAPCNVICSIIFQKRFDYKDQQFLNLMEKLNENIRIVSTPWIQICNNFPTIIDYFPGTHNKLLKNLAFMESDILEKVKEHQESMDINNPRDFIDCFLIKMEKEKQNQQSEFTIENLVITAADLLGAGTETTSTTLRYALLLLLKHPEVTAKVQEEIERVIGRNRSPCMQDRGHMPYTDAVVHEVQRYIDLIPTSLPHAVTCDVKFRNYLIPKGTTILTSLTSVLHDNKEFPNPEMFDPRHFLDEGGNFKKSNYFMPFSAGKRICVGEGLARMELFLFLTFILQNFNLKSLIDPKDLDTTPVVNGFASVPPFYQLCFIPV

Structure (SMILES)	inhibition at 20 min, 10 µM (CYP2C19) [%]	inhibition at 20 min, 10 µM (CYP2C8 [1]) [%]	Kobs 2B6 (CYP2B6) [min⁻¹]	Kobs 2B6 (CYP2B6; listed as 223-02) [min⁻¹]	Single concentration Kobs assay (risk bin) 2B6 (CYP2B6)	Kobs 2C8 (CYP2C8 [2]) [min⁻¹]	Single concentration Kobs assay (risk bin) 2C8 (CYP2C8 [2])	inhibition at 30 min (CYP2C8 [2]) [%]
COc1cc(-c2nnn(-c3cc(OC)c(O)c(OC)c3)n2)cc(OC)c1O [223-2]	-2	39	0.0147	0.01472	weak positive inhibitor	0.004276	negative inhibitor	< 50
Cc1cc(-c2nnn(-c3cc(C)c(O)c(C)c3)n2)cc(C)c1O [223-3]	84	88	0.02027	–	weak positive inhibitor	0.02943	positive inhibitor	< 50
Oc1ccc(-c2nnn(-c3ccc(O)cc3)n2)cc1 [223-10]	33	82	0.01121	–	weak positive inhibitor	0.01585	weak positive inhibitor	< 50
